Experimental data: ChEMBL document CHEMBL1130959, “Synthesis and effects of novel thiazole derivatives against thrombocytopenia” (1998)

Columns and labels:
Assay type in all cases: functional
Conditions in all cases: route oral
Mus musculus [1] = test: Percentage of the number of platelets for the treated versus mitomycin C(MMC) control group in the MMC-induced thrombocytopenic mice at a dose of 100 mg/kg following peroral administration
Mus musculus [2] = test: Percentage of the number of platelets for the treated versus mitomycin C(MMC) control group in the MMC-induced thrombocytopenic mice at a dose of 32 mg/kg following peroral administration
Mus musculus [3] = test: Percentage of the number of platelets for the treated versus mitomycin C(MMC) control group in the MMC-induced thrombocytopenic mice at a dose of 10 mg/kg following peroral administration

| Structure (SMILES) | No. of platelets (Mus musculus [1]) [%] | No. of platelets (Mus musculus [2]) [%] | No. of platelets (Mus musculus [3]) [%] |
| --- | --- | --- | --- |
| Nc1ncc([S+]([O-])c2nccs2)s1 (configuration not stated) | 146 |  |  |
| Nc1ncc(Sc2ccccn2)s1 | 147 |  |  |
| Nc1ccc(S(=O)(=O)c2ccc(N)cc2)cc1 [DAPSONE] | 150 | 125 | 91 |
| Nc1ncc([S+]([O-])c2cccc3cccnc23)s1 (configuration not stated) | 188 | 123 | 116 |
| Nc1nnc([S+]([O-])c2ccc3ccccc3n2)s1 (configuration not stated) | 102 |  |  |
| Nc1ncc([S+]([O-])c2cccnc2)s1 (configuration not stated) |  | 115 |  |
| Nc1ncc(S(=O)(=O)c2ccccn2)s1 | 139 | 143 | 94 |
| Nc1ncc([S+]([O-])c2nc3ccccc3[nH]2)s1 (configuration not stated) | 165 | 112 | 92 |
| Nc1ncc([S+]([O-])c2ncccn2)s1 (configuration not stated) |  | 116 |  |
| Nc1ncc([S+]([O-])c2ccc3ccccc3n2)s1 (configuration not stated) | 181 | 153 | 138 |
| Nc1ncc([S+]([O-])c2ccc3cc(F)ccc3n2)s1 (configuration not stated) | 162 |  |  |
| Cc1nc(N)sc1[S+]([O-])c1ccccn1 (configuration not stated) | 118 |  |  |
| Nc1ncc([S+]([O-])c2cccs2)s1 (configuration not stated) | 138 |  |  |
| Nc1ncc(C(=O)c2ccccn2)s1 | 140 |  |  |
| CNc1ncc([S+]([O-])c2ccccn2)s1 (configuration not stated) | 132 |  |  |
| Nc1ncc([S+]([O-])c2ccc3cccnc3n2)s1 (configuration not stated) |  | 130 |  |
| Cc1ccc2nc([S+]([O-])c3cnc(N)s3)ccc2c1 (configuration not stated) | 146 |  |  |
| [O-][S+](c1ccccn1)c1cncs1 (configuration not stated) | 171 | 148 | 124 |
| Nc1ncc([S+]([O-])c2cnc3ccccc3n2)s1 (configuration not stated) | 131 |  |  |
| Nc1ncc([S+]([O-])c2ccccn2)s1 (configuration not stated) |  | 154 |  |
